{"source": "patent US8088791B2", "about": "“Antibacterial agents” (Biots Scientific Management Pty Ltd, priority 2006, dated 2012)", "key": {"Staphylococcus aureus": {"test_system": "Staphylococcus aureus", "assay": "mouse Staphylococcus aureus septicaemia model of infection", "assay_type": "in vivo", "details": "survival at day 7 of infected mice; single intraperitoneal dose of 100 mg/kg at 1 hour after intraperitoneal inoculation with a lethal dose of Staphylococcus aureus", "method": "Some of the Examples were also tested for activity in a mouse Staphylococcus aureus septicaemia model of infection."}, "[1]": {"test_system": "Staphylococcus aureus ATCC29213", "assay": "Minimum Inhibitory Concentration (MIC) testing, broth microdilution, Staphylococcus aureus", "assay_type": "cell-based", "details": "Staphylococcus aureus ATCC29213; read-out: Staphylococcus aureus MICs Activity", "outline": "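Broth microdilution per NCCLS M7-A5 in Mueller Hinton broth, with compound in 1.6% DMSO and inoculum at OD 0.09 diluted 1:100. Plates incubated 16–20 h at 37°C. MIC is the lowest concentration with no visible growth; scored A ≤8, B 16–64, C >64 μg/ml.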"}, "Bacillus subtilis 168CA": {"test_system": "Bacillus subtilis 168CA", "assay": "Minimum Inhibitory Concentration (MIC) testing, broth microdilution, Bacillus subtilis", "assay_type": "cell-based", "details": "Bacillus subtilis 168CA; read-out: Bacillus subtilis MICs Activity", "outline": "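MICs were scored A (≦8 μg/ml), B (16–64 μg/ml) or C (>64 μg/ml), read as the lowest concentration preventing visible growth by eye and spectrophotometry. Plates incubated overnight (16–20 h) at 37 °C, inoculum OD 0.09 diluted 1:100 in 2× broth, per NCCLS guidelines.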"}, "[2]": {"test_system": "various bacterial species", "assay": "Minimum Inhibitory Concentration (MIC) testing, broth microdilution, other bacterial species", "assay_type": "cell-based", "outline": "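Broth microdilution per NCCLS M7-A5 in rich broth (e.g. Mueller Hinton), inoculum from OD 0.09 suspension diluted 1:100 in 2× broth. Incubation 16-20 hours at 37° C; turbidity scored visually and spectrophotometrically. MIC is the lowest concentration inhibiting visible growth, binned A ≦8, B 16-64, C >64 micrograms/ml.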"}, "[3]": {"test_system": "staphylococcal clinical isolates", "assay": "Minimum Inhibitory Concentration (MIC) testing, broth microdilution, staphylococcal clinical isolates", "assay_type": "cell-based", "details": "for MIC: read-out: MIC Activity against clinical isolate", "method": "Compounds of this invention were tested for antimicrobial activity by susceptibility testing in liquid media. MICs for compounds against each strain were determined by a broth microdilution method according to the National Committee for Clinical Laboratory Standards (NCCLS) guidelines. (NCCLS. 2000. Methods for dilution antimicrobial susceptibility tests for bacteria that grow aerobically—fifth edition. Approved standard M7-A5. NCCLS, Wayne, Pa.)\nBriefly, test compounds are prepared in 100 μl of 1.6% DMSO solution in multiwell plates. Several bacterial colonies from a freshly streaked plate are transferred to an appropriate rich broth, such as Mueller Hinton. The cell suspension is adjusted to an optical density of 0.09 and further diluted 1:100 with warm 2× broth. This cell suspension is dispensed into the wells containing compound solution so that the final volume is 200 μl. The plates are incubated overnight (16-20 hours) at 37° C. and turbidity is scored by eye and quantified spectrophotometrically. The MIC is defined as the lowest concentration inhibiting visible growth.\nSome of the Examples were also tested for activity against staphylococcal clinical isolates. […] Activities were again scored as ‘A’ if the MIC was ≦8 micrograms/ml, ‘B’ if the MIC was 16 to 64 micrograms/ml and ‘C’ if the MIC was greater than 64 micrograms/ml."}}, "note": "Like-named read-outs stand apart in the source and are kept apart here."}
{"smiles": "NC(=O)c1c(F)ccc(OCc2nc3cc(Cl)ccc3s2)c1F", "note": "[Example 218, 3-[(5-Chloro-1,3-benzothiazol-2-yl)methoxy]-2,6-difluorobenzenecarboxamide]", "values": [{"measurement": "Percent survival", "setting": "Staphylococcus aureus", "value": 100, "unit": "%"}, {"measurement": "MIC", "setting": "[1]", "value": "< 8", "unit": "µg/mL"}, {"measurement": "MIC", "setting": "Bacillus subtilis 168CA", "value": "< 8", "unit": "µg/mL"}, {"measurement": "MIC", "setting": "[2]; Bacillus cereus, ATCC14579, read-out: MIC Activity Bacillus cereus ATCC 14579", "value": "< 8", "unit": "µg/mL"}, {"measurement": "MIC", "setting": "[2]; Staphylococcus epidermidis, ATCC12228, read-out: MIC Activity Staphylococcus epidermidis ATCC 12228", "value": "< 8", "unit": "µg/mL"}, {"measurement": "MIC", "setting": "[2]; Staphylococcus haemolyticus, ATCC29970, read-out: MIC Activity Staphylococcus haemolyticus ATCC 29970", "value": "< 8", "unit": "µg/mL"}, {"measurement": "MIC", "setting": "[2]; Staphylococcus saprophyticus, ATCC15305, read-out: MIC Activity Staphylococcus saprophyticus ATCC 15305", "value": "< 8", "unit": "µg/mL"}, {"measurement": "MIC Activity against clinical isolate", "setting": "[3]; S. aureus No. 753, Oxacillin S, Hospital", "value": "A (‘A’ if the MIC was ≦8 micrograms/ml)"}, {"measurement": "MIC Activity against clinical isolate", "setting": "[3]; S. aureus No. 757, Oxacillin R, Tet-R, MI-R, Hospital (tetM)", "value": "A (‘A’ if the MIC was ≦8 micrograms/ml)"}, {"measurement": "MIC Activity against clinical isolate", "setting": "[3]; S. aureus No. 1134, Oxacillin S, Hospital", "value": "A (‘A’ if the MIC was ≦8 micrograms/ml)"}, {"measurement": "MIC Activity against clinical isolate", "setting": "[3]; S. aureus No. 1135, Oxacillin R, Van-S, LZD-S, Hospital", "value": "A (‘A’ if the MIC was ≦8 micrograms/ml)"}, {"measurement": "MIC Activity against clinical isolate", "setting": "[3]; S. aureus No. 1651, Oxacillin R, Van-S, LZD-R, Hospital (G2576T, G)", "value": "A (‘A’ if the MIC was ≦8 micrograms/ml)"}, {"measurement": "MIC Activity against clinical isolate", "setting": "[3]; S. aureus No. 1652, Oxacillin R, Van-S, LZD-R, Hospital (T2500T, A)", "value": "A (‘A’ if the MIC was ≦8 micrograms/ml)"}, {"measurement": "MIC Activity against clinical isolate", "setting": "[3]; S. aureus No. 1662, Oxacillin S, Hospital", "value": "A (‘A’ if the MIC was ≦8 micrograms/ml)"}, {"measurement": "MIC Activity against clinical isolate", "setting": "[3]; S. aureus No. 1725, Oxacillin R, Van-S, LZD-R, Hospital (G2576T)", "value": "A (‘A’ if the MIC was ≦8 micrograms/ml)"}, {"measurement": "MIC Activity against clinical isolate", "setting": "[3]; S. aureus No. 1729, Oxacillin R, Tet-R, MI-R, Hospital", "value": "A (‘A’ if the MIC was ≦8 micrograms/ml)"}, {"measurement": "MIC Activity against clinical isolate", "setting": "[3]; S. aureus No. 2011, Oxacillin R, Tet-R, MI-S, Hospital (tetK)", "value": "A (‘A’ if the MIC was ≦8 micrograms/ml)"}, {"measurement": "MIC Activity against clinical isolate", "setting": "[3]; S. aureus No. 2012, Oxacillin R, Van-I, LZD-S, Hospital", "value": "A (‘A’ if the MIC was ≦8 micrograms/ml)"}, {"measurement": "MIC Activity against clinical isolate", "setting": "[3]; S. aureus No. 2018, Oxacillin R, Van-I, LZD-S, Hospital", "value": "A (‘A’ if the MIC was ≦8 micrograms/ml)"}, {"measurement": "MIC Activity against clinical isolate", "setting": "[3]; S. aureus No. 2142, Oxacillin R, CC-S, SXT-S, Community", "value": "A (‘A’ if the MIC was ≦8 micrograms/ml)"}, {"measurement": "MIC Activity against clinical isolate", "setting": "[3]; S. aureus No. 2143, Oxacillin R, Rif-R, Community", "value": "A (‘A’ if the MIC was ≦8 micrograms/ml)"}, {"measurement": "MIC Activity against clinical isolate", "setting": "[3]; S. aureus No. 2147, Oxacillin R, CC-S, SXT-S, Community", "value": "A (‘A’ if the MIC was ≦8 micrograms/ml)"}, {"measurement": "MIC Activity against clinical isolate", "setting": "[3]; S. aureus No. 2149, Oxacillin R, CC-R (iMLS), SXT-S, Community", "value": "A (‘A’ if the MIC was ≦8 micrograms/ml)"}, {"measurement": "MIC Activity against clinical isolate", "setting": "[3]; S. aureus No. 2150, Oxacillin R, CC-R, SXT-S, Community", "value": "A (‘A’ if the MIC was ≦8 micrograms/ml)"}, {"measurement": "MIC Activity against clinical isolate", "setting": "[3]; S. aureus No. 2158, Oxacillin R, CC-R, Doxy-I, Community", "value": "A (‘A’ if the MIC was ≦8 micrograms/ml)"}, {"measurement": "MIC Activity against clinical isolate", "setting": "[3]; S. aureus No. 2175, Oxacillin R, TMP-R, Community", "value": "A (‘A’ if the MIC was ≦8 micrograms/ml)"}, {"measurement": "MIC Activity against clinical isolate", "setting": "[3]; S. epidermidis No. 831, Oxacillin R", "value": "A (‘A’ if the MIC was ≦8 micrograms/ml)"}, {"measurement": "MIC Activity against clinical isolate", "setting": "[3]; S. epidermidis No. 1139, Oxacillin S", "value": "A (‘A’ if the MIC was ≦8 micrograms/ml)"}, {"measurement": "MIC Activity against clinical isolate", "setting": "[3]; S. epidermidis No. 1142, Oxacillin R", "value": "A (‘A’ if the MIC was ≦8 micrograms/ml)"}, {"measurement": "MIC Activity against clinical isolate", "setting": "[3]; S. epidermidis No. 1144, Oxacillin R", "value": "A (‘A’ if the MIC was ≦8 micrograms/ml)"}, {"measurement": "MIC", "setting": "[3]; Staphylococcus aureus, ATCC29213, S. aureus No. 0100, Oxacillin S, ATCC 29213", "value": "< 8", "unit": "µg/mL"}, {"measurement": "MIC", "setting": "[3]; Staphylococcus aureus, S. aureus No. 1015, Oxacillin R, Van-S, LZD-S, Hospital", "value": "< 8", "unit": "µg/mL"}, {"measurement": "MIC", "setting": "[3]; Staphylococcus epidermidis, S. epidermidis No. 835, Oxacillin S", "value": "< 8", "unit": "µg/mL"}]}
